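96-well plates; 48 h exposure; 5 concentrations. Endpoints by linear interpolation between flanking doses. Not reached: highest tested concentration assigned. At the GI50, growth is halved.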 The source made the active and inactive calls. No stated cut-off is given here; in the data, active = GI50 up to about 1.1 µM and inactive = higher.

Test systems include M19-MEL; NCI-H226; NCI-H522; DMS-114; NCI-H460; HCT-15; COLO 205; NCI-H23; OVCAR-5; LOX IMVI; A549; HCT-116; HOP-62; M14; SK-MEL-28; CCRF-CEM; EKVX.
Common to all, as to experiment: NCI tumour cell line growth inhibition, 48 h

As for `CC1=C2CCCC2C/C(=N/Nc2ccc([N+](=O)[O-])cc2[N+](=O)[O-])CC1` (centres undefined), the GI50 with M19-MEL was > 100 µM (inactive); in the assay on NCI-H226 it was > 100 µM (inactive); in the assay on NCI-H522, > 100 µM (inactive); in the assay with DMS-114, > 100 µM (inactive); with NCI-H460, > 100 µM (inactive); with HCT-15, above 100 µM. Further, the GI50 in the assay on COLO 205, in the assay with NCI-H23, in the assay with OVCAR-5, in the assay on LOX IMVI, with A549 and in the assay with HCT-116 was > 100 µM (inactive) each time. Besides, the GI50 in the assay with HOP-62, in the assay on M14 and with SK-MEL-28 was > 100 µM (inactive) in each case.

Turning to `CCN(CC)CCCN(c1cc(OC)cc2nccnc12)S(=O)(=O)c1ccc(C)cc1`, the GI50 is > 100 µM (inactive) in the assay on M19-MEL; > 100 µM (inactive) in the assay with NCI-H226; > 100 µM (inactive) in the assay with NCI-H522; > 100 µM (inactive) with DMS-114; > 100 µM (inactive) in the assay with NCI-H460; above 100 µM in the assay on HCT-15. For the same molecule, the GI50 was > 100 µM (inactive) in the assay on COLO 205; 99.1 µM (inactive) in the assay with CCRF-CEM; > 100 µM (inactive) with NCI-H23; > 100 µM (inactive) in the assay on OVCAR-5; > 100 µM (inactive) in the assay on EKVX; > 100 µM (inactive) in the assay on LOX IMVI. Further, the GI50 with A549, in the assay on HOP-62, with M14 and in the assay with SK-MEL-28 was > 100 µM (inactive) in each case.

For the molecule `C=C1CC2(CCS(=O)(=O)c3ccccc32)OC1=O` (centres undefined), the GI50 with M19-MEL is 17.5 µM (inactive); in the assay on NCI-H226, 10.9 µM (inactive); in the assay with NCI-H522 it was 2.82 µM (inactive); in the assay on DMS-114, 3.94 µM (inactive); in the assay with NCI-H460, 18.5 µM (inactive); with HCT-15 it was 11.9 µM. Moreover, the GI50 is 2.99 µM (inactive) in the assay with COLO 205; 2.24 µM (inactive) with CCRF-CEM; 12 µM (inactive) in the assay on NCI-H23; 14.3 µM (inactive) in the assay with OVCAR-5; 18 µM (inactive) in the assay with EKVX; 17.3 µM (inactive) with LOX IMVI. Further, the GI50 with A549 was 17.9 µM (inactive); in the assay with HOP-62, 18.3 µM (inactive); in the assay on M14, 6.62 µM (inactive); in the assay with SK-MEL-28, 13.3 µM (inactive).

On to `COc1ccc(N(C)CN(C)c2nc(N(C)C)nc(N(C)C)n2)cc1`, for which the GI50 in the assay with M19-MEL is > 100 µM (inactive); in the assay on NCI-H522 it was > 100 µM (inactive); in the assay on DMS-114, > 100 µM (inactive); in the assay with NCI-H460, > 100 µM (inactive); with HCT-15, above 100 µM; in the assay with COLO 205 it was > 100 µM (inactive). Also, the GI50 in the assay with CCRF-CEM, with NCI-H23, with OVCAR-5, in the assay with EKVX, with LOX IMVI and in the assay with A549 was > 100 µM (inactive) in each case. Besides, the GI50 with HCT-116, in the assay on HOP-62, in the assay with M14 and in the assay on SK-MEL-28 was > 100 µM (inactive) in each case.

Regarding `CCOc1ccc(NC(=O)CC2C(=O)Nc3ccccc3S2(=O)=O)cc1` (centres undefined), the GI50 was > 100 µM (inactive) with M19-MEL; 34.3 µM (inactive) in the assay on NCI-H226; > 100 µM (inactive) in the assay on NCI-H522; > 100 µM (inactive) with DMS-114; > 100 µM (inactive) in the assay on NCI-H460; above 100 µM with HCT-15. Besides, the GI50 in the assay on COLO 205, in the assay on NCI-H23, in the assay with OVCAR-5, in the assay on EKVX, with LOX IMVI and in the assay with A549 was > 100 µM (inactive) throughout. Also, the figures for the GI50 with HCT-116, in the assay on HOP-62 and with SK-MEL-28 were > 100 µM (inactive), 41.1 µM (inactive) and > 100 µM (inactive), respectively.

On to `O=C1c2cccc3cccc(c23)C(=O)N1CCCN1CCN(CCCN2C(=O)c3cccc4cccc(c34)C2=O)CC1`, for which the GI50 in the assay on M19-MEL was > 100 µM (inactive); with NCI-H226 it was > 100 µM (inactive); in the assay on DMS-114 it was > 100 µM (inactive); with NCI-H460 it was > 100 µM (inactive); with HCT-15, above 100 µM; in the assay with COLO 205 it was > 100 µM (inactive). Further, the GI50 is 32.8 µM (inactive) in the assay with CCRF-CEM; > 100 µM (inactive) with NCI-H23; > 100 µM (inactive) with OVCAR-5; > 100 µM (inactive) with EKVX; > 100 µM (inactive) with LOX IMVI; > 100 µM (inactive) with A549. Also, the GI50 in the assay with HCT-116, with HOP-62 and with M14 was > 100 µM (inactive) each time.

On to `COCCOc1cc(C)cc(/C=C(C)/C=C/C2=C(C)CCCC2(C)C)n1`, for which the GI50 is 32.8 µM (inactive) in the assay on M19-MEL; 32.1 µM (inactive) with NCI-H226; 28.9 µM (inactive) in the assay on NCI-H522; 28.1 µM (inactive) with DMS-114; 88.7 µM (inactive) with NCI-H460; 54 µM (inactive) in the assay with COLO 205. For the same molecule, the GI50 in the assay on NCI-H23 is 58.9 µM (inactive); with OVCAR-5 it was > 100 µM (inactive); in the assay on EKVX it was 38.2 µM (inactive); in the assay on LOX IMVI, 54.8 µM (inactive); with A549, 51.9 µM (inactive); in the assay with HCT-116 it was 30.7 µM (inactive). In addition, the GI50 is > 100 µM (inactive) with HOP-62, 94 µM (inactive) in the assay with M14 and > 100 µM (inactive) in the assay on SK-MEL-28.

For `O=C(Nc1ccccc1[N+](=O)[O-])c1ccccc1`, the GI50 was > 100 µM (inactive) in the assay on M19-MEL; 83.8 µM (inactive) in the assay on NCI-H226; 56.9 µM (inactive) in the assay with NCI-H522; 70.1 µM (inactive) with DMS-114; > 100 µM (inactive) in the assay on NCI-H460; above 100 µM in the assay with HCT-15. Further, the GI50 with COLO 205 was > 100 µM (inactive); with NCI-H23, > 100 µM (inactive); in the assay with OVCAR-5 it was > 100 µM (inactive); in the assay on EKVX, 97.7 µM (inactive); in the assay on LOX IMVI, 95.9 µM (inactive); in the assay on A549, > 100 µM (inactive). Also, the GI50 with HCT-116 was > 100 µM (inactive); with HOP-62 it was 67.5 µM (inactive); in the assay on M14, > 100 µM (inactive); in the assay on SK-MEL-28, > 100 µM (inactive).

In the case of `CCOC(=O)C(=O)Nc1ccccc1OCC`, the GI50 with M19-MEL, in the assay with NCI-H226, with NCI-H522, with DMS-114, in the assay with NCI-H460 and in the assay on CCRF-CEM was > 100 µM (inactive) throughout. For the same molecule, the GI50 in the assay with NCI-H23, with OVCAR-5, with EKVX, in the assay with LOX IMVI, with A549 and with HCT-116 was > 100 µM (inactive) in each case. The GI50 in the assay with HOP-62, in the assay with M14 and in the assay with SK-MEL-28 was > 100 µM (inactive) in each case.

For the molecule `FC(F)(F)c1nc(-c2ccccc2)oc1Sc1nnc(Sc2oc(-c3ccccc3)nc2C(F)(F)F)s1`, the GI50 was 23.2 µM (inactive) with M19-MEL; 18.5 µM (inactive) with NCI-H522; 6.15 µM (inactive) in the assay on DMS-114; > 100 µM (inactive) in the assay on NCI-H460; 25.3 µM in the assay on HCT-15; 41.1 µM (inactive) in the assay with COLO 205. Also, the GI50 with CCRF-CEM is 8.97 µM (inactive); in the assay on NCI-H23 it was 24.2 µM (inactive); in the assay with OVCAR-5, > 100 µM (inactive); in the assay with EKVX, > 47.2 µM (inactive); in the assay on LOX IMVI, 10.4 µM (inactive); with A549 it was > 100 µM (inactive). Further, the GI50 in the assay with HCT-116 was > 65.3 µM (inactive); in the assay on HOP-62, > 100 µM (inactive); in the assay with M14, 14.2 µM (inactive); with SK-MEL-28, > 55.3 µM (inactive).

On to `CC1SC2=NC3=C(c4ccccc4C3=O)C(c3ccc(Cl)cc3)N2C1=O` (centres undefined), for which the GI50 is > 100 µM (inactive) in the assay with M19-MEL; > 100 µM (inactive) in the assay with NCI-H226; 25.1 µM (inactive) with NCI-H522; > 100 µM (inactive) in the assay on DMS-114; > 100 µM (inactive) in the assay with NCI-H460; above 100 µM in the assay with HCT-15. Besides, the GI50 is > 100 µM (inactive) in the assay with COLO 205; > 100 µM (inactive) in the assay on CCRF-CEM; 97.7 µM (inactive) with NCI-H23; > 100 µM (inactive) in the assay with OVCAR-5; > 100 µM (inactive) with EKVX; > 100 µM (inactive) in the assay on A549. In addition, the GI50 in the assay with HOP-62, with M14 and in the assay with SK-MEL-28 was > 100 µM (inactive) in each case.

On to `COc1ccc(/C=C/C(=O)c2sc(NC(=S)NC(=O)c3ccccc3F)nc2C)cc1OC`, for which the GI50 is > 100 µM (inactive) in the assay with M19-MEL; 21.5 µM (inactive) in the assay on NCI-H522; > 100 µM (inactive) in the assay on DMS-114; > 100 µM (inactive) in the assay on NCI-H460; above 100 µM in the assay on HCT-15; 51.5 µM (inactive) with COLO 205. Besides, the GI50 with CCRF-CEM is 35.6 µM (inactive); in the assay with NCI-H23 it was > 100 µM (inactive); in the assay with OVCAR-5, > 100 µM (inactive); in the assay on EKVX it was > 100 µM (inactive); with LOX IMVI, > 100 µM (inactive); in the assay with A549 it was > 100 µM (inactive). Further, the GI50 in the assay on HOP-62 was > 100 µM (inactive); with SK-MEL-28, 66.7 µM (inactive).

`C=C[C@H]1C=Cc2c(OC)cccc2[C@@H]1COP1(=S)NC(C)C(c2ccccc2)O1` (some centres undefined): the GI50 was 75 µM (inactive) in the assay on M19-MEL; 67.5 µM (inactive) in the assay on NCI-H226; 29.4 µM (inactive) in the assay with NCI-H522; 32.9 µM (inactive) in the assay with DMS-114; > 100 µM (inactive) in the assay with NCI-H460; 97.3 µM (inactive) in the assay with COLO 205. Moreover, the GI50 with CCRF-CEM is 42 µM (inactive); with NCI-H23 it was 50.1 µM (inactive); in the assay with EKVX, > 100 µM (inactive); in the assay on LOX IMVI, 17.2 µM (inactive); with A549, 83.2 µM (inactive); with HCT-116, 52.8 µM (inactive). Moreover, the GI50 with HOP-62, with M14 and in the assay with SK-MEL-28 was > 100 µM (inactive) each time.
